# ChEMBL document CHEMBL4480424, “Bialternacins A-F, Aromatic Polyketide Dimers from an Endophytic Alternaria sp” (J Nat Prod, 2019)
# Active and inactive are the calls of the source. No cut-off for these calls is given here.
# Target: Acetylcholinesterase (Homo sapiens, UniProt P22303)
# Test: Inhibition of AChE (unknown origin) using acetylthiocholine iodide as substrate after 5 mins by spectrophotometric analysis
# Chain of Acetylcholinesterase (P22303 whole entry): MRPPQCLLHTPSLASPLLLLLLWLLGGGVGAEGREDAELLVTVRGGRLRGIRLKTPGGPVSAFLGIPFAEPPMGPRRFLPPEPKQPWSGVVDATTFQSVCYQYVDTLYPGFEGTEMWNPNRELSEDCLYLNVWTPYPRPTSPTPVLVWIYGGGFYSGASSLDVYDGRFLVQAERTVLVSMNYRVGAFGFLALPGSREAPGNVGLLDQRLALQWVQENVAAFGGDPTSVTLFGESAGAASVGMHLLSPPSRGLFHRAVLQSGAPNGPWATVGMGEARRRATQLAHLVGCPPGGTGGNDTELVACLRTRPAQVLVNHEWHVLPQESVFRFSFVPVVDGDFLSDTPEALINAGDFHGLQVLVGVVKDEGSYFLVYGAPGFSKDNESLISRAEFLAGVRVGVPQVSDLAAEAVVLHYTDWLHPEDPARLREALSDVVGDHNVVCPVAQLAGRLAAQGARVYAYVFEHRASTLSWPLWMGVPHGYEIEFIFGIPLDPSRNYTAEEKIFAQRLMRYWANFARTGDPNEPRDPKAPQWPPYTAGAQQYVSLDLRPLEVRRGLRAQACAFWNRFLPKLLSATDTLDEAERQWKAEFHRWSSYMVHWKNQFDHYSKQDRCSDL
Structure (SMILES),IC50 [µM],inhibition
COc1cc(O)c2c(c1)C1=C(c3c(O)c(O)cc(C)c3-c3cc(OC)cc(O)c3C(=O)O)C(=O)C(O)=CC1(C)OC2=O (stereo not given),15.5,inactive
COc1cc(O)c2c(c1)C1=C(C3=C4c5cc(OC)cc(O)c5C(=O)OC4(C)C=C(O)C3=O)C(=O)C(O)=CC1(C)OC2=O (stereo in doubt; (-)-6),,inactive
COc1cc(O)c2c(c1)C1=C(C3=C4c5cc(OC)cc(O)c5C(=O)OC4(C)C=C(O)C3=O)C(=O)C(O)=CC1(C)OC2=O (stereo in doubt; (+)-6),,inactive
COc1cc(O)c(C(=O)O)c(-c2c(C)cc(O)c3oc4c(c23)C2(OC(=O)c3c(O)cc(OC)cc32)C(C)=CC4=O)c1 (stereo in doubt; (+)-2),,inactive
COc1cc(O)c(C(=O)O)c(-c2c(C)cc(O)c(O)c2-c2c(O)c(O)cc(C)c2-c2cc(OC)cc(O)c2C(=O)O)c1,,inactive
COc1cc(O)c2c(c1)C1=CC3=Nc4cc(C)c(-c5cc(OC)cc(O)c5C(=O)O)cc4O[C@@]3(O)C[C@@]1(C)OC2=O,,inactive
COc1cc(O)c(C(=O)O)c(-c2c(C)cc(O)c3oc4c(c23)C2(OC(=O)c3c(O)cc(OC)cc32)C(C)=CC4=O)c1 (stereo in doubt; (-)-2),,inactive
COc1cc(O)c(C(C)=O)c(-c2c(C)cc(O)c3oc4c(O)cc(C)c(-c5cc(OC)cc(O)c5C(=O)O)c4c23)c1,68.3,
COc1cc(O)c2c(c1)C1=CC3=Nc4cc(C)c(-c5cc(OC)cc(O)c5C(=O)O)cc4O[C@]3(O)C[C@]1(C)OC2=O,,inactive
